Laboratory results taken from PMC11677527, “Predicting Pharmacokinetics of Active Constituents in Spatholobi caulis by Using Physiologically Based Pharmacokinetic Models” (Pharmaceuticals, 2024).
Like-named read-outs stand apart in the source and are kept apart here.

Legend:
[1] = Observed pharmacokinetics in rats after oral SPC (previous study); assay type: in vivo, rat; conditions: p.o. SPC
[2] = set-up: method as in PMID 34303214; conditions: rats, p.o. SPC 30 g crude drug/kg; doses of 1-4: 0.062, 0.11, 0.71, 1.31 mg/kg; cited from earlier work
[3] = Verification pharmacokinetic experiment in rats, SPC 60 g crude drug/kg by gavage, UFLC-MS/MS, DAS 2.0; assay type: in vivo, rat
Procedure, shortened: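 Rats received SPC suspension at 60 g crude drug/kg by gavage. Orbital blood was taken at 0.083–12 h into heparin, and plasma 3′-methoxydaidzein, 8-O-methylretusin, daidzin and isolariciresinol were measured by UFLC-MS/MS (C18, MRM, carbamazepine internal standard). PK parameters were calculated from concentration-time curves.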

[4] = test system: Caco-2 cell monolayer; set-up: method as in PMID 36680806, PMID 26501241; conditions: Caco-2 cell monolayer model; cited from earlier work
[5] = compartment model parameters, DAS 2.0, rats p.o. SPC 60 g crude drug/kg, Mean, 5 rats
[6] = statistical moment parameters, DAS 2.0, rats p.o. SPC 60 g crude drug/kg, Mean, 5 rats
[7] = statistical moment parameters, DAS 2.0, rats p.o. SPC 60 g crude drug/kg, Mean, 5 rats, in µg·h²/mL

time of slight secondary absorption peak [1]: 6 h
K10 [3, 5]: 7.512 h⁻¹
K12 [3, 5]: 0.448 h⁻¹
K21 [3, 5]: 0.247 h⁻¹
Ka [3, 5]: 5.032 h⁻¹
Tlag [3, 5]: 0 h
V1/F [3, 5]: 29.573 L/kg
t1/2Ka [3, 5]: 0.175 h
t1/2α [3, 5]: 0.433 h
concentration at 0.083 h ([3]; rat, plasma, oral, time 0.083 h, rats p.o. SPC 60 g crude drug/kg, doses of 1-4: 0.124, 0.22, 1.4, 2.62 mg/kg, 5 rats): 15.4 ng/mL
concentration at 0.25 h ([3]; rat, plasma, oral, time 0.25 h, rats p.o. SPC 60 g crude drug/kg, doses of 1-4: 0.124, 0.22, 1.4, 2.62 mg/kg, 5 rats): 41.5 ng/mL
concentration at 0.5 h ([3]; rat, plasma, oral, time 0.5 h, rats p.o. SPC 60 g crude drug/kg, doses of 1-4: 0.124, 0.22, 1.4, 2.62 mg/kg, 5 rats): 41.7 ng/mL
concentration at 0.75 h ([3]; rat, plasma, oral, time 0.75 h, rats p.o. SPC 60 g crude drug/kg, doses of 1-4: 0.124, 0.22, 1.4, 2.62 mg/kg, 5 rats): 27.6 ng/mL
concentration at 1 h ([3]; rat, plasma, oral, time 1 h, rats p.o. SPC 60 g crude drug/kg, doses of 1-4: 0.124, 0.22, 1.4, 2.62 mg/kg, 5 rats): 22.2 ng/mL
concentration at 1.5 h ([3]; rat, plasma, oral, time 1.5 h, rats p.o. SPC 60 g crude drug/kg, doses of 1-4: 0.124, 0.22, 1.4, 2.62 mg/kg, 5 rats): 8.29 ng/mL
concentration at 2 h ([3]; rat, plasma, oral, time 2 h, rats p.o. SPC 60 g crude drug/kg, doses of 1-4: 0.124, 0.22, 1.4, 2.62 mg/kg, 5 rats): 7.03 ng/mL
concentration at 3 h ([3]; rat, plasma, oral, time 3 h, rats p.o. SPC 60 g crude drug/kg, doses of 1-4: 0.124, 0.22, 1.4, 2.62 mg/kg, 5 rats): 4.27 ng/mL
concentration at 4 h ([3]; rat, plasma, oral, time 4 h, rats p.o. SPC 60 g crude drug/kg, doses of 1-4: 0.124, 0.22, 1.4, 2.62 mg/kg, 5 rats): 3.41 ng/mL
concentration at 6 h ([3]; rat, plasma, oral, time 6 h, rats p.o. SPC 60 g crude drug/kg, doses of 1-4: 0.124, 0.22, 1.4, 2.62 mg/kg, 5 rats): 2.01 ng/mL
AUC(0-t) ([3]; rat, plasma, po, 2.62 mg/kg, compartment model parameters, DAS 2.0, rats p.o. SPC 60 g crude drug/kg, Mean, 5 rats, read-out: AUC(0-t)): 46.4 ng·h/mL
AUC(0-inf) ([3]; rat, plasma, po, 2.62 mg/kg, compartment model parameters, DAS 2.0, rats p.o. SPC 60 g crude drug/kg, Mean, 5 rats, read-out: AUC(0-∞)): 52.8 ng·h/mL
CL/F ([3]; rat, plasma, po, 2.62 mg/kg, compartment model parameters, DAS 2.0, rats p.o. SPC 60 g crude drug/kg, Mean, 5 rats, read-out: CL/F (converted)): 1660 mL/min/kg
half-life ([3]; rat, plasma, po, 2.62 mg/kg, compartment model parameters, DAS 2.0, rats p.o. SPC 60 g crude drug/kg, Mean, 5 rats, read-out: t1/2β (converted)): 17.4 h
AUC(0-t) ([3]; rat, plasma, po, 2.62 mg/kg, rats, p.o. SPC 60 g crude drug/kg, doses of 1-4: 0.124, 0.22, 1.42, 2.62 mg/kg, n = 5, read-out: AUC0→t Val.): 55.7 ng·h/mL
AUC(0-inf) ([3]; rat, plasma, po, 2.62 mg/kg, rats, p.o. SPC 60 g crude drug/kg, doses of 1-4: 0.124, 0.22, 1.42, 2.62 mg/kg, n = 5, read-out: AUC0→∞ Val.): 59.3 ng·h/mL
Cmax ([3]; rat, plasma, po, 2.62 mg/kg, rats, p.o. SPC 60 g crude drug/kg, doses of 1-4: 0.124, 0.22, 1.42, 2.62 mg/kg, n = 5, read-out: Cmax Val.): 41.7 ng/mL
AUC(0-t) ([3]; rat, plasma, po, 2.62 mg/kg, statistical moment parameters, DAS 2.0, rats p.o. SPC 60 g crude drug/kg, Mean, 5 rats, read-out: AUC(0-t)): 55.7 ng·h/mL
AUC(0-inf) ([3]; rat, plasma, po, 2.62 mg/kg, statistical moment parameters, DAS 2.0, rats p.o. SPC 60 g crude drug/kg, Mean, 5 rats, read-out: AUC(0-∞)): 59.3 ng·h/mL
CL/F ([3]; rat, plasma, po, 2.62 mg/kg, statistical moment parameters, DAS 2.0, rats p.o. SPC 60 g crude drug/kg, Mean, 5 rats, read-out: CLz/F (converted)): 738 mL/min/kg
Cmax ([3]; rat, plasma, po, 2.62 mg/kg, statistical moment parameters, DAS 2.0, rats p.o. SPC 60 g crude drug/kg, Mean, 5 rats, read-out: Cmax): 41.7 ng/mL
MRT last ([3]; rat, plasma, po, 2.62 mg/kg, statistical moment parameters, DAS 2.0, rats p.o. SPC 60 g crude drug/kg, Mean, 5 rats, read-out: MRT(0-t)): 1.48 h
MRT inf ([3]; rat, plasma, po, 2.62 mg/kg, statistical moment parameters, DAS 2.0, rats p.o. SPC 60 g crude drug/kg, Mean, 5 rats, read-out: MRT(0-∞)): 2.08 h
Tmax ([3]; rat, plasma, po, 2.62 mg/kg, statistical moment parameters, DAS 2.0, rats p.o. SPC 60 g crude drug/kg, Mean, 5 rats, read-out: Tmax): 0.3 h
Vd/F ([3]; rat, plasma, po, 2.62 mg/kg, statistical moment parameters, DAS 2.0, rats p.o. SPC 60 g crude drug/kg, Mean, 5 rats, read-out: Vz/F): 111 L/kg
half-life ([3]; rat, plasma, po, 2.62 mg/kg, statistical moment parameters, DAS 2.0, rats p.o. SPC 60 g crude drug/kg, Mean, 5 rats, read-out: t1/2z (converted)): 1.73 h
Cz [3, 6]: 1.39 µg/L
VRT(0-t) [3, 6]: 2.067 h^2
VRT(0-∞) [3, 6]: 6.027 h^2
elimination rate constant [3, 6]: 0.412 h⁻¹
AUMC(0-t) [3, 7]: 82.484
AUMC(0-∞) [3, 7]: 123.911
SMILES: COc1cc([C@H]2c3cc(O)c(OC)cc3C[C@@H](CO)[C@@H]2CO)ccc1O [Constituent 4, isolariciresinol]
AUC0→t Obs. [2]: 34.7 ng·h/mL
AUC0→∞ Obs. [2]: 38.3 ng·h/mL
Cmax Obs. [2]: 26.2 ng/mL
Tmax Obs. [2]: 0.31 h
Papp [4]: 2.2 ×10⁻⁶ cm/s
